Test results: the OPERA property sets (Mansouri et al. 2018)
In brackets after ≈: the same amount, converted by molar mass.

Settings: not given

SMILES	logP	solubility [mM]
CC(CCl)OC(C)CCl (stereo not drawn)	2.48	–
c1ccc2c(c1)[nH]c1cnccc12	3.17	–
CCOC1OC2OC3(C)CC(O)C4C(C)CCC(C1C)C24OO3 (stereo not drawn)	2.7	–
NS(=O)(=O)c1cc(C2(O)NC(=O)c3ccccc32)ccc1Cl (stereo not drawn)	0.85	–
Clc1cc2c(Cl)cccc2c(Cl)c1Cl	5.77	–
O=C(Nc1ccc(O)cc1)C(Cl)Cl	1.6	–
CC(=O)/C=C/C1C(C)=CCCC1(C)C (stereo not drawn)	–	0.551 (≈ 106 µg/mL)
CCC(C)n1ncn(-c2ccc(N3CCN(c4ccc(OC[C@H]5CO[C@](Cn6cncn6)(c6ccc(Cl)cc6Cl)O5)cc4)CC3)cc2)c1=O (stereo partly drawn)	5.66	–
CC(C)(O)C(=O)Nc1ccc(Cl)cc1	2	–
Clc1ccc(C2OC2c2ccccc2)cc1 (stereo not drawn)	4.54	–
CCc1cc2c(s1)N(C)C(=O)CN=C2c1ccccc1Cl	3.18	–
O=P(OCCCl)(OCCCl)OCCCl	–	24.5 (≈ 7000 µg/mL)
CC(C)(C)C1=CC(=O)C=C(C(C)(C)C)C1=O	4.42	–
CCCNC1=NC(=O)C(=Cc2ccc([N+](=O)[O-])o2)S1	1.24	–
CC[N+](CC)(CC)CC.[Cl-]	-3.15	–
Cc1cn([C@H]2C[C@H](N=[N+]=[N-])[C@@H](CO)O2)c(=O)[nH]c1=S	1.07	–
COC(=O)c1sccc1S(=O)(=O)NC(=O)Nc1nc(C)nc(OC)n1	1.56	–
CCO[C@H]1O[C@@H]2OC3(C)CC[C@H]4[C@H](C)CC[C@@H]([C@H]1C)[C@@]24OO3	3.89	–
CCC(=O)OC	0.84	–
Cc1cc(Cl)ccc1OCC(=O)O	3.25	–

Same assay, conditions: 20 °C

SMILES	solubility [mM]
O=C(O)Cc1ccccc1	122 (≈ 16600 µg/mL)
CCNc1nc(NC(C)C)nc(OC)n1	8.52 (≈ 1800 µg/mL)
CCSCC	34.7 (≈ 3130 µg/mL)
CC(C)COC(=O)C(C)C	5.24 (≈ 755 µg/mL)
N#CCCCCC#N	740 (≈ 80000 µg/mL)
COCc1cnc(C2=NC(C)(C(C)C)C(=O)N2)c(C(=O)O)c1 (stereo not drawn)	14.5 (≈ 4410 µg/mL)
Nc1ccc(Cl)c(Cl)c1	0.568 (≈ 92 µg/mL)
CCOP(=S)(OCC)ON=C(C#N)c1ccccc1Cl	0.00511 (≈ 1.7 µg/mL)
CCCC(CCC)C(=O)O	13.9 (≈ 2000 µg/mL)

Same assay, conditions: 22 °C

SMILES	solubility [mM]
CCCCC(CC)COC(=O)CCCCC(=O)OCC(CC)CCCC (stereo not drawn)	0.0021 (≈ 0.78 µg/mL)

Same assay, conditions: 23.0 °C

SMILES	log10 OH rate constant (cm³/molecule/s)
CCC/C=C/C=O	-10.4
CCOCCOCCO	-10.2

Same assay, conditions: 25 °C

SMILES	solubility [mM]
Nc1ncc2ncn(COCCO)c2n1	83.7 (≈ 17500 µg/mL)
CCCCCCCCCCN	3.5 (≈ 550 µg/mL)
CSc1ccccc1	4.07 (≈ 506 µg/mL)
Oc1cc(Cl)cc(Cl)c1	27.6 (≈ 4500 µg/mL)
OCC(Br)CBr (stereo not drawn)	239 (≈ 52000 µg/mL)
CC(F)(F)Cl	13.9 (≈ 1400 µg/mL)
CC1(C)Cc2cccc([N+](=O)[O-])c2O1	0.621 (≈ 120 µg/mL)
CC(C)(C)NCC(O)COc1cccc2c1C[C@H](O)[C@H](O)C2 (stereo partly drawn)	26.9 (≈ 8330 µg/mL)
CC(C)(C)c1cccc(O)c1	13.8 (≈ 2070 µg/mL)
CCN(CC)c1ccccc1	0.938 (≈ 140 µg/mL)
c1ccc2c(c1)ccc1c3ccc4ccccc4c3[nH]c21	3.78e-05 (≈ 0.0101 µg/mL)
C=C(C)C(=O)OC(C)(C)C	7.03 (≈ 1000 µg/mL)
CC(CCc1ccccc1)NCC(O)c1ccc(O)c(C(N)=O)c1 (stereo not drawn)	0.356 (≈ 117 µg/mL)
c1ccc2c(c1)ccc1cc3ccc4ccccc4c3cc12	3.7e-06 (≈ 0.00103 µg/mL)
CCCCCO[N+](=O)[O-]	2.7 (≈ 360 µg/mL)
CCC(=O)OCC(C)C	13.1 (≈ 1700 µg/mL)
CCC(=O)OC	708 (≈ 62400 µg/mL)

Same assay, conditions: 25.0 °C

SMILES	log10 OH rate constant (cm³/molecule/s)
FC(F)(Cl)C(Cl)Cl	-13.3
CCCCCl	-11.8
CC(Cl)C(C)Cl (stereo not drawn)	-12
CC(C)CC(=O)CC(C)C	-10.6
CC(F)(Cl)Cl	-14.2
COC(F)(F)C(F)F	-12.7
FCC(F)(F)C(F)F	-14
CC(C)c1ccc(NC(=O)N(C)C)cc1	-10.9

Same assay, conditions: 27.0 °C

SMILES	log10 OH rate constant (cm³/molecule/s)
CC1=CC(=O)C=CC1=O	-10.6
